Source: patent US11530223B2, “Spiro-lactam NMDA receptor modulators and uses thereof” (Aptinyx Inc., priority 2016, dated 2022)
Where two headings read alike, the source gives them in different places. Each block holds one compound with its values, some of them ahead of it.

Assays:
[1] = molecular target: T1, NMDAR2B (Homo sapiens, UniProt Q13224); assay: [3H]MK-801 binding in NMDAR2B expressing HEK cell membranes; assay type: biochemical; design: key to B: log EC50: 0=−; ≥1×10^−9 M (e.g., −8)=+; <1×10^−9 M (e.g., −10)=++; conditions: 50 μM glutamate; for Emax: read-out: A: % maximal [3H]MK-801 binding relative to 1 mM glycine; for EC50: read-out: B: log EC50 (converted)
T1 construct: expressed in transfected cells; host or cells: HEK cells (membrane extract)
T1 sequence (Q13224 27-1484, species assumed, other chains not shown): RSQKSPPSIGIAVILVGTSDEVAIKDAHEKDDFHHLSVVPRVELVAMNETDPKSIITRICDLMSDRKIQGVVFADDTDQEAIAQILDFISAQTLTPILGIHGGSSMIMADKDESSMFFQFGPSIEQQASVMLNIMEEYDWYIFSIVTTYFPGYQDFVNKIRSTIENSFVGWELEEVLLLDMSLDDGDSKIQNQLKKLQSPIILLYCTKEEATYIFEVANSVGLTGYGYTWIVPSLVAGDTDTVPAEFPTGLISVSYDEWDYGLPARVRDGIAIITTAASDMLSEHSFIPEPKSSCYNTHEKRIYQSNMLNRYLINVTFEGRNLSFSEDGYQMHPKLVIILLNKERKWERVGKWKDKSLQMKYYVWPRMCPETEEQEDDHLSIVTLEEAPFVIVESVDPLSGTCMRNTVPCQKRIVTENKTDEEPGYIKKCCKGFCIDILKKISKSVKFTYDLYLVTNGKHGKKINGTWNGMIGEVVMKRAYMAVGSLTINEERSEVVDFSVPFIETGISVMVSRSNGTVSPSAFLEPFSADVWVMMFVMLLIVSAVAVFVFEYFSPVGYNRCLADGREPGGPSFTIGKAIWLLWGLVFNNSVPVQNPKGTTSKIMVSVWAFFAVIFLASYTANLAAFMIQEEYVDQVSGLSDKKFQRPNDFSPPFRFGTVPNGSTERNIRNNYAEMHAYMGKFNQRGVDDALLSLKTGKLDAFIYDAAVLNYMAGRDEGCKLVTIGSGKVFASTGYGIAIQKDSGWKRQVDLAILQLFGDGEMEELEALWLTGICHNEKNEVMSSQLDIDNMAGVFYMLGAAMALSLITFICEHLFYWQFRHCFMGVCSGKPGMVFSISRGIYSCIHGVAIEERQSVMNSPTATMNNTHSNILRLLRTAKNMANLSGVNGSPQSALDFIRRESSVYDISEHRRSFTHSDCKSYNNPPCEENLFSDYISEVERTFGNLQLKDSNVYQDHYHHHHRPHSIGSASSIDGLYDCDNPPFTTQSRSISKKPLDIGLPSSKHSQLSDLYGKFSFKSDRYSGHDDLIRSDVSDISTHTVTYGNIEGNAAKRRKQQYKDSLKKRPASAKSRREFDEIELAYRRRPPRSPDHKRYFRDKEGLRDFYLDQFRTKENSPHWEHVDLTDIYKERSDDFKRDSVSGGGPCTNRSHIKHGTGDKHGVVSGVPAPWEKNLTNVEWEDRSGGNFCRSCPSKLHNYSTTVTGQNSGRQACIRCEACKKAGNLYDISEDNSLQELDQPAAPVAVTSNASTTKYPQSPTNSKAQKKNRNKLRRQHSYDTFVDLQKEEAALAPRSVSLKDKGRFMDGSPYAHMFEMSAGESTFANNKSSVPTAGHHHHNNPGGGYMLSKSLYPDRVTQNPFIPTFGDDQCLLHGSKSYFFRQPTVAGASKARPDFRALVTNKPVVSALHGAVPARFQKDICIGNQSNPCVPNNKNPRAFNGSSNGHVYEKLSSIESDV
Method: (§1) Assays were conducted as described by Moskal et al., “GLYX-13: a monoclonal antibody-derived peptide that acts as an N-methyl-D-aspartate receptor modulator,” Neuropharmacology, 49, 1077-87, 2005. These studies were designed to determine if the test compounds act to facilitate NMDAR activation in NMDAR2A, NMDAR2B, NMDAR2C or NMDAR2D expressing HEK cell membranes as measured by increases in [^3H]MK-801 binding.
(§2) In the assay, 300 μg of NMDAR expressing HEK cell membrane extract protein was preincubated for 15 minutes at 25° C. in the presence of saturating concentrations of glutamate (50 μM) and varying concentrations of test compound (1×10^−15M−1×10^−7M), or 1 mM glycine. Following the addition of 0.3 μCi of [^3H]MK-801 (22.5 Ci/mmol), reactions were again incubated for 15 minutes at 25° C. (nonequilibrium conditions). Bound and free [^3H]MK-801 were separated via rapid filtration using a Brandel apparatus.
(§3) In analyzing the data, the DPM (disintegrations per minute) of [^3H]MK-801 remaining on the filter were measured for each concentration of test compound or for 1 mM glycine. The DPM values for each concentration of a ligand (N=2) were averaged. The baseline value was determined from the best fit curve of the DPM values modeled using the GraphPad program and the log(agonist) vs. response (three parameters) algorithm was then subtracted from all points in the dataset. The % maximal [^3H]MK-801 binding was then calculated relative to that of 1 mM glycine: all baseline subtracted DPM values were divided by the average value for 1 mM glycine. The EC50 and % maximal activity were then obtained from the best fit curve of the % maximal [^3H]MK-801 binding data modelled using the GraphPad program and the log(agonist) vs. response (three parameters) algorithm.
(§4) The tables below summarize the results for the wild type […] NMDAR2A, NMDAR2B, NMDAR2C, and NMDAR2D, and whether the compound is not an agonist (−), is an agonist (+), or is a strong agonist (++), where column A is based on the % maximal [^3H]MK-801 binding relative to 1 mM glycine (−=0; <100%=+; and >100%=++); and column B is based on log EC50 values (0=−; ≥1×10^−9 M (e.g., −8)=+; and <1×10^−9 M (e.g., −10)=++).

[2] = molecular target: T2, NMDAR2A (Homo sapiens, UniProt Q12879); assay: [3H]MK-801 binding in NMDAR2A expressing HEK cell membranes; assay type: biochemical; design: key to B: log EC50: 0=−; ≥1×10^−9 M (e.g., −8)=+; <1×10^−9 M (e.g., −10)=++; conditions: 50 μM glutamate; for Emax: read-out: A: % maximal [3H]MK-801 binding relative to 1 mM glycine; for EC50: read-out: B: log EC50 (converted)
T2 construct: expressed in transfected cells; host or cells: HEK cells (membrane extract)
T2 sequence (Q12879 23-1464, species assumed, other chains not shown): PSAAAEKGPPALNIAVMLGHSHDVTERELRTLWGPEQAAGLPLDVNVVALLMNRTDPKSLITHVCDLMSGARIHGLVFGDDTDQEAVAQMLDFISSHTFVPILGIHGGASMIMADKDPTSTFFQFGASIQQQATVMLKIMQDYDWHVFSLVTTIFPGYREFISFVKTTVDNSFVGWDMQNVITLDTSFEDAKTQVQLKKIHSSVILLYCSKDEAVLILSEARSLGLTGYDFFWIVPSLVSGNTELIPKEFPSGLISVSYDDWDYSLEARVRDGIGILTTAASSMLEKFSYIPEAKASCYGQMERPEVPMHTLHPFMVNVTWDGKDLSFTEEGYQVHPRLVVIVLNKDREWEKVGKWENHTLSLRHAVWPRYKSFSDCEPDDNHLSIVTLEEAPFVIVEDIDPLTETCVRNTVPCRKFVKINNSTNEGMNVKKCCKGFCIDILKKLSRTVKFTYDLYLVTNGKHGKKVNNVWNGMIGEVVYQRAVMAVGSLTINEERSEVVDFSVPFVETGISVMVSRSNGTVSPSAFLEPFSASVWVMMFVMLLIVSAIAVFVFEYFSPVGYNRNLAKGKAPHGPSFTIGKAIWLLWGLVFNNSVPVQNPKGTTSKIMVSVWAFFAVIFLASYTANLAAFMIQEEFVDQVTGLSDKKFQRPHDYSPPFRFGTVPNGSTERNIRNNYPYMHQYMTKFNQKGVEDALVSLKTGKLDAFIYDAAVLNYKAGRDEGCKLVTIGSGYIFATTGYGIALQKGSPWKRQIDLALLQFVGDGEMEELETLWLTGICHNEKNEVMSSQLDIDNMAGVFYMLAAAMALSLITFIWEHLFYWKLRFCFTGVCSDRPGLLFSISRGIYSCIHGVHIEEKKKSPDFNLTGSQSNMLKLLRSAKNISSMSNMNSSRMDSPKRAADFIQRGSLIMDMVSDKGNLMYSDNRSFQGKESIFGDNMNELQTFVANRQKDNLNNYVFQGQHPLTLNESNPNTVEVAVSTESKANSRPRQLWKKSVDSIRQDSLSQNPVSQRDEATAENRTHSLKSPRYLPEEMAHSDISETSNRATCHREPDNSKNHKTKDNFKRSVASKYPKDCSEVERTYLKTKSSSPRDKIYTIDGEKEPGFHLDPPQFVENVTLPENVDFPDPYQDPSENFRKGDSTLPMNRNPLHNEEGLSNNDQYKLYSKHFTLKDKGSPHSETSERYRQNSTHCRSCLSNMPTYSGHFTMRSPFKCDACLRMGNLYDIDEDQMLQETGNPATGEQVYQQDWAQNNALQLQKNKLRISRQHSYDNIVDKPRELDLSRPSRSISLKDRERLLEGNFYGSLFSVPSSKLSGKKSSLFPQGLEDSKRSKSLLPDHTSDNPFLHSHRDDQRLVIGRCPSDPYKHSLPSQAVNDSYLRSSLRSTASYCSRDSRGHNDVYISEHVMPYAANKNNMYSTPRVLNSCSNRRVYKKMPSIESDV
Method: as §1, §2, §3, §4

[3] = molecular target: T3, NMDAR2D (Homo sapiens, UniProt O15399); assay: [3H]MK-801 binding in NMDAR2D expressing HEK cell membranes; assay type: biochemical; design: key to B: log EC50: 0=−; ≥1×10^−9 M (e.g., −8)=+; <1×10^−9 M (e.g., −10)=++; conditions: for A: % maximal [3H]MK-801 binding relative to 1 mM glycine: c3, taken as NMDAR2D
T3 construct: expressed in transfected cells; host or cells: HEK cells (membrane extract)
T3 sequence (O15399 28-1336, species assumed, other chains not shown): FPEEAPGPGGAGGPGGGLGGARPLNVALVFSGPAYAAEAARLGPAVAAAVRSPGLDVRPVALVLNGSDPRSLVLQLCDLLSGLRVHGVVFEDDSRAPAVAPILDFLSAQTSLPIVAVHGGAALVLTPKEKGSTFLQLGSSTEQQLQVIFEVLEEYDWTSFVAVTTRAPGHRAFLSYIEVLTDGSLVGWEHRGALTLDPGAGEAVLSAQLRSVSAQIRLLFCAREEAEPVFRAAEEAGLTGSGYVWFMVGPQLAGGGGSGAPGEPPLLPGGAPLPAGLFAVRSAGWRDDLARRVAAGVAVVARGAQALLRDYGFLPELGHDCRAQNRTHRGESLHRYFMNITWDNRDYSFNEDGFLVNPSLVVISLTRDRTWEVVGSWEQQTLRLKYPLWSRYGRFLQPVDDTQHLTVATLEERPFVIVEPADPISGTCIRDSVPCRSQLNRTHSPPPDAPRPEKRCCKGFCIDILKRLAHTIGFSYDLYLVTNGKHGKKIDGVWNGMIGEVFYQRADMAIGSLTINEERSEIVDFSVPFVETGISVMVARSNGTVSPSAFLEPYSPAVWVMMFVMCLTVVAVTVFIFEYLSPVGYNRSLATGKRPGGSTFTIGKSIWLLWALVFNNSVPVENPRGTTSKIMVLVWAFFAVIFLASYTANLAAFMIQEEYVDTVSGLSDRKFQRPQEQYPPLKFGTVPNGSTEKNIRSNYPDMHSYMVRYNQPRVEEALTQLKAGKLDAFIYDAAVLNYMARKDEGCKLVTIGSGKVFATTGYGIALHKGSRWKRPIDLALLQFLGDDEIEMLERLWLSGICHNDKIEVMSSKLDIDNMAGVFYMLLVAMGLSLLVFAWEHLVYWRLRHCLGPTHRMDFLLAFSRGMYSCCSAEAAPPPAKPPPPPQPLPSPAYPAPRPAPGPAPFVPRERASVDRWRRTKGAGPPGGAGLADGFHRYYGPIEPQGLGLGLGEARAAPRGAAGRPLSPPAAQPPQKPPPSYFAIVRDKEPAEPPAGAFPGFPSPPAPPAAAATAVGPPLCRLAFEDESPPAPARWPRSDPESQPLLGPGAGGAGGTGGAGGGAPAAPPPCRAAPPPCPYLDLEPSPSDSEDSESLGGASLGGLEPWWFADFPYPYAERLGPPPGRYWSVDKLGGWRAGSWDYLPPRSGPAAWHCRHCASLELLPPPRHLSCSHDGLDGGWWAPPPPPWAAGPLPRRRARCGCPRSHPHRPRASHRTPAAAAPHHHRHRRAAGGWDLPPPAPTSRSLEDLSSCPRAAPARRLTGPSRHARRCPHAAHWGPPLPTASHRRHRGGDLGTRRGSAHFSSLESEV
Method: as §1, §2, §3, §4

[4] = oral pharmacokinetics (plasma, brain, CSF); assay type: in vivo; conditions: Sprague Dawley rats, per os 10 mg/kg; for Tmax: normal saline (first four compounds: 5% NMP, 5% Solutol HS, 90% normal saline)
Method: Plasma, brain, and CSF samples were analyzed at various time points over a 24 hour period.

[5] = IV pharmacokinetics; assay type: in vivo; conditions: Sprague Dawley rats; for C0: normal saline (first four compounds: 5% NMP, 5% Solutol HS, 90% normal saline); for Vd: read-out: Vss
Method: Sprague Dawley rats were dosed intravenously using a normal saline formulation containing 2 mg/kg of the compounds identified in the below table (except for the first four compounds that were delivered in 5% NMP, 5% Solutol® HS and 90% normal saline formulation). The table below summarizes the results of the IV pharmacokinetics.

[6] = test system: Sprague Dawley rats; assay: Porsolt forced swim test; assay type: in vivo; conditions: 0.1 mg/kg; for % reduction in float time: relative to vehicle group
Method: A non-clinical in vivo pharmacology study (Porsolt assay) was performed to measure antidepressant-like effects. A negative control (0.5% sodium carboxymethyl cellulose in 0.9% sterile saline vehicle) and a positive control (fluoxetine) are shown for comparison against test compound. The study allowed for the evaluation of the effects of each compound on the Porsolt forced swim test as assessed by the rats' response (reduced floating time) during a 5-minute swimming test.
Male 2-3 month old Sprague Dawley rats were used (Harlan, Indianapolis, Ind.). Rats were housed in Lucite cages with aspen wood chip bedding, maintained on a 12:12 light:dark cycle (lights on at 5 AM), and given ad libitum access to Purina lab chow (USA) and tap water throughout the study.
The Porsolt forced swim test adapted for use in rats was performed as described by Burgdorf et al., (The long-lasting antidepressant effects of rapastinel (GLYX-13) are associated with a metaplasticity process in the medial prefrontal cortex and hippocampus. Neuroscience 308:202-211, 2015). Animals were placed in a 46 cm tall×20 cm in diameter clear glass tube filled to 30 cm with tap water (23±1° C.) for 15 min on the first day (habituation) and 5 min on the subsequent test day. Positive control fluoxetine was dosed 3 times (24 h, 5 h and 1 h) prior to testing. Animals were tested 1 h or 24 h post-dosing with the test compounds or vehicle. Animals received a 15 min habituation session 1 day before the 5 min test. A subset of compounds tested at 1 h post-dosing were retested at 1 wk post-dosing in the same sets of animals. Water was changed after every other animal. Animals were videotaped, and floating time as defined as the minimal amount of effort required to keep the animals head above water was scored offline by a blinded experimenter with high inter-rater reliability (Pearson's r>0.9).
Each compound tested at dose level shown. Significance vs. vehicle group for each experiment is marked. […] A compound marked “No” was not statistically significant from vehicle. Data was averaged for test compound and vehicle groups (N approximately 8 per group) and the percent reduction in floating for group treated with test compound relative to group treated with vehicle is shown.

[7] = Sprague Dawley, rat, plasma, po, 10 mg/kg
[8] = Sprague Dawley, rat, plasma, po, 10 mg/kg, read-out: Tmax
[9] = Sprague Dawley, rat, plasma, po, 10 mg/kg, plasma, read-out: Cmax
[10] = Sprague Dawley, rat, in vivo, iv, 2 mg/kg
[11] = Sprague Dawley, rat, in vivo, iv, 2 mg/kg, read-out: C0
[12] = 1 h post-dose, floating time in 5 min test

SMILES: O=C1NCCC12CCCN2 (stereo not shown) [RX-1, 1,7-diazaspiro[4.4]nonan-6-one]
B: log EC50 [1]: −
Emax [1]: 0%
B: log EC50 [2]: −
Emax [2]: 0%

B: log EC50 [1]: −
B: log EC50 [2]: −
SMILES: CC(C)C(=O)N1CCCCC12CCNC2=O (stereo not shown) [RG-610]

SMILES: CC(=O)N1CCCC12CCNC2=O (stereo not shown) [RZ-403]
A: % maximal [3H]MK-801 binding relative to 1 mM glycine [1]: ++ (>100%=++)
EC50 [1]: < 1 nM
A: % maximal [3H]MK-801 binding relative to 1 mM glycine [2]: − (−=0)
B: log EC50 [2]: −

B: log EC50 [1]: −
Emax [1]: 0%
B: log EC50 [2]: −
Emax [2]: 0%
SMILES: CC(C)(C)OC(=O)N1CCC2(CCNC2=O)CC1 [RG-619]

B: log EC50 [1]: −
Emax [1]: 0%
B: log EC50 [2]: −
Emax [2]: 0%
SMILES: CC(C)C(=O)N1CCCCC12CCNC2=O (stereo not shown) [RG-609]

SMILES: CC(=O)N1CCCC12CCNC2=O (stereo not shown) [RZ-404]
A: % maximal [3H]MK-801 binding relative to 1 mM glycine [1]: − (−=0)
B: log EC50 [1]: −
A: % maximal [3H]MK-801 binding relative to 1 mM glycine [2]: + (<100%=+)
EC50 [2]: < 1 nM

A: % maximal [3H]MK-801 binding relative to 1 mM glycine [1]: + (<100%=+)
EC50 [1]: < 1 nM
A: % maximal [3H]MK-801 binding relative to 1 mM glycine [2]: − (−=0)
B: log EC50 [2]: −
SMILES: CC(C)C(=O)N1CCCC12CCNC2=O (stereo not shown) [RZ-406]

A: % maximal [3H]MK-801 binding relative to 1 mM glycine [1]: + (<100%=+)
EC50 [1]: < 1 nM
A: % maximal [3H]MK-801 binding relative to 1 mM glycine ([3]; second part of table (r25-r35)): − (−=0)
B: log EC50 ([3]; second part of table, c4, taken as NMDAR2D): −
% F [4]: 48%
AUClast [4]: 1933 ng·h/mL
CSF Cmax [4]: 1077 ng/mL
Brain Cmax [4]: 612 ng/mL
Tmax [4]: 15 min
Cmax ([4]; plasma): 2812 ng/mL
A: % maximal [3H]MK-801 binding relative to 1 mM glycine [2]: − (−=0)
B: log EC50 [2]: −
AUClast ([5]; intravenous 2 mg/kg): 804 ng·h/mL
Cl ([5]; intravenous 2 mg/kg): 41.29 mL/min/kg
T1/2 ([5]; intravenous 2 mg/kg): 20.4 min
Vss ([5]; intravenous 2 mg/kg): 0.91 L/kg
C0 ([5]; intravenous 2 mg/kg): 2303 ng/mL
SMILES: CC(C)(C)OC(=O)N1CCCCC12CCNC2=O (stereo not shown) [RG-606]

SMILES: O=C1NCCC12CCNCC2 [RG-603]
Emax [1]: < 100%
EC50 [1]: < 1 nM
AUC(0-t) [4, 7]: 897 ng·h/mL
bioavailability [4, 7]: 11%
Tmax [4, 8]: 60 min
Cmax [4, 9]: 311 ng/mL
Emax [2]: < 100%
EC50 [2]: ≥ 1 nM
AUC(0-t) [5, 10]: 1570 ng·h/mL
clearance [5, 10]: 21.1 mL/min/kg
half-life [5, 10]: 59.4 min
C0 [5, 11]: 5190 ng/mL
Vd [5, 10]: 0.81 L/kg

Emax [1]: < 100%
EC50 [1]: < 1 nM
CSF Cmax [4]: 4727 ng/mL
Brain Cmax [4]: 4317 ng/mL
AUC(0-t) [4, 7]: 42600 ng·h/mL
bioavailability [4, 7]: 81%
Cmax [4, 9]: 10900 ng/mL
Tmax ([4]; rat, plasma, po, read-out: Tmax): 25.2 min
B: log EC50 [2]: −
Emax [2]: 0%
AUC(0-t) [5, 10]: 10500 ng·h/mL
clearance [5, 10]: 3.18 mL/min/kg
half-life [5, 10]: 239 min
C0 [5, 11]: 4130 ng/mL
Vd [5, 10]: 0.56 L/kg
SMILES: CC(C)C(=O)N1CCC2(CCNC2=O)CC1 [RG-623]
Significance vs. vehicle [6, 12]: Yes (statistically significant (p<=0.05) from vehicle at dose level shown)
% reduction in float time ([6]; 1 h post-dose): 60.0%
Significance vs. vehicle ([6]; 24 h post-dose): Yes (statistically significant (p<=0.05) from vehicle at dose level shown)
% reduction in float time ([6]; 24 h post-dose): 52.9%

SMILES: CC(=O)N1CCC2(CCNC2=O)CC1 [RG-621]
Emax [1]: > 100%
EC50 [1]: < 1 nM
CSF Cmax [4]: 3654.37 ng/mL
Brain Cmax [4]: 1977.29 ng/mL
AUC(0-t) [4, 7]: 29100 ng·h/mL
bioavailability [4, 7]: 93%
Tmax [4, 8]: 34.8 min
Cmax [4, 9]: 12000 ng/mL
Emax [2]: < 100%
EC50 [2]: < 1 nM
AUC(0-t) [5, 10]: 6230 ng·h/mL
clearance [5, 10]: 5.33 mL/min/kg
half-life [5, 10]: 103 min
C0 [5, 11]: 4760 ng/mL
Vd [5, 10]: 0.52 L/kg

SMILES: O=C1NCCC12CCCCN2 (stereo not shown) [RG-602]
A: % maximal [3H]MK-801 binding relative to 1 mM glycine [1]: + (<100%=+)
EC50 [1]: < 1 nM
A: % maximal [3H]MK-801 binding relative to 1 mM glycine ([3]; second part of table (r25-r35)): + (<100%=+)
EC50 ([3]; second part of table (r25-r35), c4, taken as NMDAR2D, read-out: B: log EC50 (converted)): < 1 nM
A: % maximal [3H]MK-801 binding relative to 1 mM glycine [2]: + (<100%=+)
EC50 [2]: < 1 nM
Significance vs. vehicle ([6]; 1 wk post-dose): Yes (statistically significant (p<=0.05) from vehicle at dose level shown)
% reduction in float time ([6]; 1 wk post-dose): 55.5%
Significance vs. vehicle [6, 12]: Yes (statistically significant (p<=0.05) from vehicle at dose level shown)
% reduction in float time ([6]; 1 h post-dose): 71.1%
